According to patent US20220305121A1, “N-ARYL SULFONAMIDE DERIVATIVES AS VACCINE ADJUVANT” (The Regents of the University of California, priority 2019, published 2022):
“Also recorded” adds a separate entry of the source.

How the values were obtained:
[1] = system: C57BL/6 (wild-type, WT) mice; test: In vivo adjuvant activity study (ovalbumin + MPLA + compound, OVA-specific IgG by ELISA); conditions: coimmunization with MPLA and ovalbumin; for OVA-specific IgG antibody titers: intramuscular, days 0 and 21, compared to MPLA alone
ISRE = test: Measurement of ISRE activity in ISRE-bla THP-1 cells (FRET, IFN-α as primary stimulus); assay type: cell-based; conditions: for activity at 5 µM / EC50: Homo sapiens, THP-1; for activity at 5 µM: compound 5 μM + IFN-α 100 U/mL, 16 hours, two point normalized: compound 1 + IFN-α = 200%, IFN-α = 100%, mean, read-out: ISRE % Activation; for EC50: dose response in the presence of IFN-α
Method in brief: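 Cells at 5×10^4/well in RPMI with 10% dialyzed FBS, treated with compound at 5 μM (0.05% DMSO) plus IFN-α at 100 U/mL (final) for 16 h. CCF4-AM substrate added for 3 h at room temperature. Background-subtracted 465/535 nm emission ratio, 2-point normalized: IFN-α alone 100%, compound 1+IFN-α 200%.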

NF-κB and ISRE = NF-κB and ISRE reporter assays (primary screens), statements in words for both assays; assay type: cell-based; conditions: for activity in NF-κB and ISRE assays (in words): with LPS or IFN-α as primary stimulus, compared to compound 1
Method in brief: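 Single 5 μM compound (0.05% DMSO). NF-κB: THP1-Blue cells with 10 μg/mL LPS, 20 h, SEAP by absorbance at 630 nm. ISRE: ISRE-bla THP-1 cells with 100 U/mL IFN-α, 16 h, CCF4-AM 465/535 nm ratio. Both normalized to stimulus alone as 100%, compound 1 plus stimulus as 200%.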

THP-1 cells = test: Cell viability assay (MTT); assay type: cell-based; conditions: compound 5 μM, 18 hours incubation; normalized to DMSO as 100%; mean
Method in brief: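 Cells at 10^5/well in RPMI with 10% FBS were exposed to compound at 5 μM final (0.05% DMSO) for 18 h. MTT (0.5 mg/mL) then added for 4-6 h, cells lysed overnight in SDS/HCl, absorbance read at 570 nm against 650 nm reference.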

NF-κB = test: Measurement of NF-κB activation using THP1-Blue NF-κB cells (SEAP reporter, LPS as primary stimulus); assay type: cell-based; conditions: for activity at 5 µM: compound 5 μM + LPS, 20 hour incubation, two point normalized: compound 1 + LPS = 200%, LPS = 100%, mean
Method in brief: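 THP1-Blue NF-κB cells (10^5/well, RPMI + 10% FBS) were co-treated with LPS 10 μg/mL and compound 5 μM (final, […]) for 20 h. Supernatant SEAP was read by QuantiBlue colorimetry at 630 nm. Two-point normalization set LPS alone to 100% and compound 1+LPS to 200%.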

[2] = Stability of compound 48 in DMSO stock and in assay media; assay type: physicochemical
Method: However, before proceeding with syntheses of additional acylated analogs, its stability in stock solutions was evaluated since during the assay this compound could behave as a prodrug by undergoing deacetylation to release active compound 1. […] Thus, syntheses of additional acylated analogs were not pursued.

What does the source list for CCOc1ccc(S(=O)(=O)N(C)c2cc(OC)c(Cl)cc2OC)cc1 [Compound 33, N-(4-chloro-2,5-dimethoxyphenyl)-4-ethoxy-N-methylbenzenesulfonamide]?
systemic toxicity as indicated by behavior change or weight loss [1]: without demonstrable systemic toxicity; OVA-specific IgG antibody titers [1]: statistically significant increases; also recorded: significant enhancement of antibody titers; activity at 5 µM (ISRE): 215%; EC50 (ISRE): 840 nM; activity in NF-κB and ISRE assays (in words) (NF-κB and ISRE): equipotent as compound 1; MTT % Viability (THP-1 cells): 74.5%; activity at 5 µM (NF-κB): 235%; EC50 (NF-κB; dose response in the presence of LPS): 690 nM

What does the source list for CCOc1ccc(S(=O)(=O)N(C(C)=O)c2cc(OC)c(Cl)cc2OC)cc1 [Compound 48, N-(4-chloro-2,5-dimethoxyphenyl)-N-((4-ethoxyphenyl)sulfonyl)acetamide]?
incubation with assay media ([2]; assay media, data not shown): release of compound 1; stability of stock in DMSO ([2]; stock in DMSO): stable; activity in NF-κB and ISRE assays (in words) (NF-κB and ISRE): active; MTT % Viability (THP-1 cells): 72.0%

What does the source list for CCOc1ccc(S(=O)(=O)Nc2cc(OC)c(Cl)cc2OC)cc1 [Compound 1, N-(4-chloro-2,5-dimethoxyphenyl)-4-ethoxybenzenesulfonamide]?
systemic toxicity as indicated by behavior change or weight loss [1]: without demonstrable systemic toxicity; OVA-specific IgG antibody titers [1]: statistically significant increases; also recorded: significant enhancement of antibody titers; activity at 5 µM (ISRE): 200%; EC50 (ISRE): 660 nM; NF-κB or ISRE activity when tested alone (NF-κB and ISRE; tested alone, without LPS or IFN-α): little if any; activity in NF-κB and ISRE assays (in words) (NF-κB and ISRE): enhanced their activation; also recorded: retained activity; also recorded: sustained NF-κB and ISRE activation; MTT % Viability (THP-1 cells): 73.5%; activity at 5 µM (NF-κB): 200%

Which activity at 5 µM (ISRE) does the source give for COc1cc(NS(=O)(=O)c2ccc(O)cc2)c(OC)cc1Cl [Compound 11, N-(4-chloro-2,5-dimethoxyphenyl)-4-hydroxybenzenesulfonamide] here?
The activity at 5 µM was 104%.

And the “activity in NF-κB and ISRE assays (in words)” value (NF-κB and ISRE)?
The value was “not tolerated”.

And the “MTT % Viability” value (THP-1 cells)?
Its value is 85.2%.

What about the activity at 5 µM (NF-κB) of the same compound?
Its activity at 5 µM is 98%.

For CCOc1ccc(S(=O)(=O)Nc2cc(OC)c(Cl)c(OC)c2)cc1 [Compound 8, N-(4-chloro-3,5-dimethoxyphenyl)-4-ethoxybenzenesulfonamide], which activity at 5 µM (ISRE) is on record?
Its activity at 5 µM is 218%.

And the “ISRE activity (in words)” value (ISRE; with IFN-α)?
The value was “slightly skewed ISRE activity”.

What about the “activity in NF-κB and ISRE assays (in words)” value (NF-κB and ISRE) of the same compound?
Its value is “complete loss of activity”.

What about the “MTT % Viability” value (THP-1 cells) of the same compound?
The value was 71.4%.

And the activity at 5 µM (NF-κB)?
Its activity at 5 µM is 179%.
